Consider three compounds from patent publication US20250275968A1, “INHIBITORS OF TAU PROTEINS” (DEUTSCHES ZENTRUM FÜR NEURODEGENERATIVE ERKRANKUNGEN E.V., priority 2022, published 2025).

Where a name gives a salt, the structure may show the parent alone.

One series addresses T1, 2N4R tau (Homo sapiens, UniProt P10636).
T1 construct: Full-length 2N4R tau was incubated with Osimertinib mesylate
Description: In vitro seeded aggregation/fibrillization assay of 2N4R tau (ThT fluorescence). Format: biochemical. Particulars: for In vitro seeded aggregation/fibrillization of full-length tau (ThT fluorescence curves): 2N4R tau, various formulations. The procedure: Aggregation of 2N4R Tau was performed using a previously published co-factor-free aggregation protocol, with a few modifications (Reference: Chakraborty, P. et al. Co-factor-free aggregation of tau into seeding-competent RNA-sequestering amyloid fibrils. Nat. Commun. 12, 4231 (2021)). Aggregation experiments used the Tau protein stock prepared in 25 mM HEPES pH 7.4, 1 mM TCEP. Stocks of compounds were prepared in aggregation buffer (25 mM HEPES, 10 mM KCl, 5 mM MgCl2, pH 7.2) or in DMSO (10 mM compound).
(§1) To prepare the Tau fibril seeds by de novo aggregation, 2N4R Tau at a monomer concentration of 25 μM was diluted in aggregation buffer. The working concentration of TCEP in the aggregation mixture was <25 μM after dilution of the stock. To this mixture, Thioflavin T (ThT) was added to a final concentration of 50 μM. A total volume of 100 μL of the Tau-ThT mixture was incubated in a well of a 96-well microplate (Greiner Bio-one), in the presence of two polytetrafluoroethylene beads. The microplate was subjected to a program implemented in a Tecan Spark plate reader that involved incubating at 37° C., with intervals of double orbital shaking and ThT fluorescence emission measurement. The excitation wavelength for ThT was set as 430 nm and the emission wavelength was 485 nm. Details of this plate reader program were published previously (Reference: Chakraborty, P. et al. Co-factor-free aggregation of tau into seeding-competent RNA-sequestering amyloid fibrils. Nat. Commun. 12, 4231 (2021)). […] The fibril-containing mixture collected from the microplate served as a seeding mixture for the subsequent aggregation assays.
Seeded aggregation assays were performed as described above but with 1.0% of the well volume occupied by the seeding mixture sonicated for 1 minute. The assays were performed in the presence and absence of compounds, and working concentrations ranged from 0-250 μM compound.
Analyses of the fluorescence curves were performed using Graphpad PRISM version 8. Fluorescence data were fit to a sigmoid function. The number of hours corresponding to half-maximal ThT Fluorescence™ as well as the span of fluorescence intensity (Span) were determined for each sigmoid curve. Statistically significant differences were determined by one-way ANOVA analysis with Dunnett's multiple comparison test or unpaired t-test.

Series [1] relates to HEK293T biosensor cells expressing the human tau repeat domain (RD) harboring the P301L/V337M mutation (TauRD^LM-GFP). Description: HEK biosensor cell tau seeding assay. Format: cell-based. Particulars: for compound concentration up to which total amount of cells remained close to 100% (low toxicity): HEK biosensor cells, relative to vehicle (DMSO). The procedure: Compound stock solutions were prepared as 10 mM compound in DMSO.
HEK293T biosensor cells expressing the human tau repeat domain (RD) harboring the P301L/V337M mutation and fused to a C-terminal GFP tag (named TauRD^LM-GFP) were engineered to probe Tau seeding in cellula (Reference: Liu, S., Hossinger, A., Heumüller, S E. et al. Highly efficient intercellular spreading of protein misfolding mediated by viral ligand-receptor interactions. Nat Commun 12, 5739 (2021). https://doi.org/10.1038/s41467-021-25855-2). HEK cells expressing the P301L human full-length Tau, C-terminally tagged with GFP were incubated with pre-sonicated hTau40^P301L fibrils to induce Tau aggregate formation. Cells were harvested and the resulting cell lysate was used to seed Tau aggregation in further experiments with HEK TauRD^LM-GFP cells.
In a typical seeded assay, HEK cells were incubated with cell lysate, compounds (0-40 μM) and lipofectamine for 22-48 hours. Negative control experiments in the absence of compounds (only with vehicle DMSO) and in the presence of cell lysate were performed in parallel.
Dose response curves were constructed by quantifying the number of cells with aggregates for each compound concentration. The curves were fitted with a sigmoid function using Graphpad PRISM version 8. The inhibitory concentration at 50% activity (IC50) was determined for each compound.

For the next series, the target named is T2, 2N4R tau aggregates (Homo sapiens, UniProt P10636).
T2 construct: Full-length 2N4R tau was incubated with Osimertinib mesylate
The experiment in a line: Dissolution of preformed 2N4R tau fibrils (ThT fluorescence, TEM). The series is classed as biochemical. The settings on record: compounds added to tau fibrils after about 40 h; tau monomer:Compound 1:3 and 1:10. The procedure:
(A) ThT fluorescence curves monitoring tau aggregation. tau fibrillization reached a saturation point within about 40 h, then compounds or buffer (Reference) were added to tau fibrils (tau monomer:Compound mole ratios 1:3 and 1:10). The experiment was performed in duplicate. […] Statistically significant differences were determined by one-way ANOVA with Dunnett's multiple comparison test. Significant differences corresponding to p≤0.0002(***) and p≤0.0001(****) are indicated. […] Scale bars are 500 nm. […] The dotted line corresponds to one standard deviation above the Reference value.
as §1
Fibril samples were negative stained using glow discharged 400 mesh carbon-coated copper grids. After staining using a 1% uranyl acetate solution, images were acquired on a Talos L120C transmission electron microscope (Thermo Fisher, Eindhoven, The Netherlands).

A further series concerns the target T3, 2N4R Tau fibrils (Homo sapiens, UniProt P10636).
T3 construct: Full-length 2N4R tau was incubated with Osimertinib mesylate
The experiment in a line: Saturation transfer difference (STD) NMR with tau fibrils. The series is classed as binding. The settings on record: 48-fold excess of compound, 100 mM NaCl, 2.5% (v/v) DMSO, pH 6.8, 37° C. The procedure: 2N4R Tau fibrils were prepared using the aggregation procedure described in the section in vitro assay 1 without Thioflavin T. The mole ratio of “free” compound to fibrils was 48:1 (corresponding to a total compound concentration of 250 μM and a total fibril concentration of 5 μM Tau). The NMR samples were prepared in 50 mM sodium phosphate with 100 mM NaCl and 2.5% (v/v) DMSO at pH 6.8. The spectra were recorded at 37° C. using a Bruker 700 MHz spectrometer equipped with a triple resonance cryoprobe. 1D ^1H-NMR STD spectra were acquired in an interleaved manner, alternating between off-resonance irradiation at 60 ppm and on-resonance irradiation at −2 ppm.

[2] abbreviates: 2N4R tau^wt, mole ratios 1:3 and 1:10.

T1 sequence (P10636 1-441 isoform P10636-8): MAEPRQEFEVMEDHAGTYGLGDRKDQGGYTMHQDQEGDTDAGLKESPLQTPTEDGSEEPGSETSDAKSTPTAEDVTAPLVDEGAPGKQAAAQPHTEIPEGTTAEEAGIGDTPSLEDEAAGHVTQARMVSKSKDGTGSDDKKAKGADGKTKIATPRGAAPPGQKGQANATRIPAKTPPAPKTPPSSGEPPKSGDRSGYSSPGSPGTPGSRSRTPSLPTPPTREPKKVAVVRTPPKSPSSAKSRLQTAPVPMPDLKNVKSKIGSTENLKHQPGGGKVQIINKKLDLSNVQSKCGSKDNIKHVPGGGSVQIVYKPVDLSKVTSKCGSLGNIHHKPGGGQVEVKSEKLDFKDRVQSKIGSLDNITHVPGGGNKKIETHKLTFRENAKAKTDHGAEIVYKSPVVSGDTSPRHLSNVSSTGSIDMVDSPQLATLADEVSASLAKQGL
T2 sequence (P10636 1-441 isoform P10636-8): as above
T3 sequence (P10636 1-441 isoform P10636-8): as above

As for `C=CC(=O)Nc1cc(Nc2nccc(-c3cn(C)c4ccccc34)n2)c(OC)cc1N(C)CCN(C)C` [Osimertinib mesylate, N-[2-(2-Dimethylaminoethylmethylamino)-4-methoxy-5-[[4-(1-methylindol-3-yl)pyrimidin-2-yl]amino]phenyl]prop-2-enamide Mesylate Salt], on 2N4R tau (setting [2]), the “normalized Span of ThT fluorescence” value was “statistically lower normalized Span values” and the “normalized Tm (midpoint of aggregation curve)” value is on record as “do not show a clear dose-dependence”.
With `C=CC(=O)Nc1cc(Nc2nccc(-c3cn(C)c4ccccc34)n2)c(OC)cc1N(C)CCN(C)C` [Osimertinib, N-[2-(2-Dimethylaminoethylmethylamino)-4-methoxy-5-[[4-(1-methylindol-3-yl)pyrimidin-2-yl]amino]phenyl]prop-2-enamide], the “inhibition of seeded aggregation of tau in HEK biosensor cells” value in series [1] (0.25 μM or 7.5 μM, 22 hours, lipofectamine) is “inhibits the seeded aggregation of tau”. For the same compound, the “compound concentration up to which total amount of cells remained close to 100% (low toxicity)” value in series [1] is “about 5.0 μM”. Moreover, in series [1] (higher concentration (7.5 μM), 22 hours), the “aggregate formation in cells” value is “decreased aggregate formation”. The “In vitro seeded aggregation/fibrillization of full-length tau (ThT fluorescence curves)” value on 2N4R tau was “inhibited in a dose-dependent manner”. The “inhibitory activity towards tau aggregation” value at 2N4R tau (2.5% (v/v) DMSO) is on record as “strong inhibitory activity”. The “dissolution of 2N4R tau aggregates (reduction of ThT fluorescence intensity)” value on 2N4R tau aggregates was “partially dissolve”. The “STD effect with tau fibrils (fibril binding epitopes)” value on 2N4R Tau fibrils is given as “Protons showing STD effects”.
With `C=CC(=O)Nc1cc(Nc2nccc(-c3c[nH]c4ccccc34)n2)c(OC)cc1N(C)CCN(C)C` [Compound 3, N-[2-[[2-(dimethylamino)ethyl]methylamino]-5-[[4-(1H-indol-3-yl)-2-pyrimidinyl]amino]-4-methoxyphenyl]-2-Propenamide], the “compound concentration up to which total amount of cells remained close to 100% (low toxicity)” value in series [1] was “about 5.0 μM”. Besides, the “In vitro seeded aggregation/fibrillization of full-length tau (ThT fluorescence curves)” value at 2N4R tau was “inhibited in a dose-dependent manner”. Besides, the “dissolution of 2N4R tau aggregates (reduction of ThT fluorescence intensity)” value on 2N4R tau aggregates is “partially dissolve”. Further, the “STD effect with tau fibrils (fibril binding epitopes)” value on 2N4R Tau fibrils is on record as “Protons showing STD effects”.
